Data on twelve compounds can be found in patent US9265253B2, “Use of macrocyclic picolinamides as fungicides” (DOW AGROSCIENCES LLC, priority 2013, dated 2016).

Where two headings read alike, the source gives them in different places.

Type in all cases: in vivo
Assay [1] relates to Mycosphaerella graminicola; Anamorph: Septoria tritici. Nature of the assay: Leaf Blotch of Wheat (SEPTTR) disease control. The following applies: Zymoseptoria tritici; for pest or weed control at 100 ppm: rate 100 ppm. The method, boiled down:
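Seedlings of variety Yuma grew until the first leaf fully emerged. Fungicide solution (acetone/water with Triton X-100) was sprayed to run-off; plants were inoculated with S. tritici spores before or after spraying, held one day dark and two to three days lit at 100% humidity, then kept at 20° C.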

The subject of assay [2] is Puccinia triticina; Synonym: Puccinia recondite f. Sp. Tritici. The assay can be described thus: Wheat Brown Rust (PUCCRT) disease control. The following applies: Puccinia triticina, topical; for pest or weed control at 100 ppm: rate 100 ppm. The method, boiled down: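 Brown rust on first-leaf Yuma wheat: spore inoculation before or after spray application (acetone/Triton X-100 solution, or EC with Trycol in track spray), overnight 100% RH at 22 °C, disease developed at 24 °C. Severity scored 0–100% and converted to percent control against untreated.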

For another assay, the system named is Venturia inaequalis. The assay can be described thus: Apple Scab (VENTIN) disease control. The following applies: Venturia inaequalis, topical, 24 h, 1 Day Protectant, read-out: Disease Control VENTIN 1 DP. How it is done:
Technical grades of materials were dissolved in acetone, which were then mixed with nine volumes of water containing 110 ppm Triton X-100. The fungicide solutions were applied onto wheat seedlings using an automated booth sprayer to run-off. All sprayed plants were allowed to air dry prior to further handling. All fungicides were evaluated using the aforementioned method for their activity vs. all target diseases. Wheat leaf blotch and brown rust activity were also evaluated using track spray applications, in which case the fungicides were formulated as EC formulations, containing 0.1% Trycol 5941 in the spray solutions. Wheat plants (variety Yuma) were grown from seed in a greenhouse in 50% mineral soil/50% soil-less Metro mix until the first leaf was fully emerged, with 7-10 seedlings per pot. These plants were inoculated with an aqueous spore suspension of Septoria tritici either prior to or after fungicide treatments. After inoculation the plants were kept in 100% relative humidity (one day in a dark dew chamber followed by two to three days in a lighted dew chamber at 20° C.) to permit spores to germinate and infect the leaf. The plants were then transferred to a greenhouse set at 20° C. for disease to develop. When disease symptoms were fully expressed on the 1st leaves of untreated plants, infection levels were assessed on a scale of 0 to 100 percent disease severity. Percent disease control was calculated using the ratio of disease severity on treated plants relative to untreated plants. Apple seedlings (variety McIntosh) were grown in soil-less Metro mix, with one plant per pot. Seedlings with two expanding young leaves at the top (older leaves at bottom of the plants were trimmed) were used in the test. Plants were inoculated with a spore suspension of Venturia inaequalis 24 hr after fungicide treatment and kept in a 22° C. dew chamber with 100% RH for 48 hr, and then moved to a greenhouse set at 20° C. for disease to develop. Fungicide formulation, application and disease assessment on the sprayed leaves followed the procedures as described in the Example A.

The subject of the next assay is Erysiphe cichoracearum. Nature of the assay: Powdery Mildew of Cucumber (ERYSCI) disease control. The following applies: Golovinomyces cichoracearum, topical, 24 h, 1 Day Protectant, read-out: Disease Control ERYSCI 1 DP. How it is done:
Technical grades of materials were dissolved in acetone, which were then mixed with nine volumes of water containing 110 ppm Triton X-100. The fungicide solutions were applied onto wheat seedlings using an automated booth sprayer to run-off. All sprayed plants were allowed to air dry prior to further handling. All fungicides were evaluated using the aforementioned method for their activity vs. all target diseases. Wheat leaf blotch and brown rust activity were also evaluated using track spray applications, in which case the fungicides were formulated as EC formulations, containing 0.1% Trycol 5941 in the spray solutions. Wheat plants (variety Yuma) were grown from seed in a greenhouse in 50% mineral soil/50% soil-less Metro mix until the first leaf was fully emerged, with 7-10 seedlings per pot. These plants were inoculated with an aqueous spore suspension of Septoria tritici either prior to or after fungicide treatments. After inoculation the plants were kept in 100% relative humidity (one day in a dark dew chamber followed by two to three days in a lighted dew chamber at 20° C.) to permit spores to germinate and infect the leaf. The plants were then transferred to a greenhouse set at 20° C. for disease to develop. When disease symptoms were fully expressed on the 1st leaves of untreated plants, infection levels were assessed on a scale of 0 to 100 percent disease severity. Percent disease control was calculated using the ratio of disease severity on treated plants relative to untreated plants. Cucumber seedlings (variety Bush Pickle) were grown in soil-less Metro mix, with one plant per pot, and used in the test when 12 to 14 days old. Plants were inoculated with a spore suspension 24 hr following fungicide treatments. After inoculation the plants remained in the greenhouse set at 20° C. until disease was fully expressed. Fungicide formulation, application and disease assessment on the sprayed leaves followed the procedures as described in the Example A.

Setting [3] is: 24 h, 1 Day Protectant, rate 121.5 g/H, read-out: SEPTTR 1 DP disease control.
Setting [4] is: 72 h, 3 Day Curative, rate 121.5 g/H, read-out: SEPTTR 3 DC disease control.
Setting [5] is: 24 h, 1 Day Protectant, rate 121.5 g/H, read-out: PUCCRT 1 DP disease control.
[6] abbreviates: 72 h, 3 Day Curative, rate 121.5 g/H, read-out: PUCCRT 3 DC disease control.
The mark [7] stands for this setting: 24 h, 1 Day Protectant, read-out: SEPTTR 1 DP disease control.
[8] abbreviates: 72 h, 3 Day Curative, read-out: SEPTTR 3 DC disease control.
The mark [9] stands for this setting: 24 h, 1 Day Protectant, read-out: PUCCRT 1 DP disease control.
The mark [10] stands for this setting: 72 h, 3 Day Curative, read-out: PUCCRT 3 DC disease control.

In the case of `C=C[C@H]1CCC[C@H](NC(=O)c2nccc(OC)c2OCOC(C)=O)C(=O)O[C@@H](C)[C@@H]1Oc1ccccc1` [Compound F146], the pest or weed control at 121.5 g/ha in assay [1] (setting [3]), in assay [1] (setting [4]), in assay [2] (setting [5]) and in assay [2] (setting [6]) was 80 to 100% in each case. Moreover, the pest or weed control at 100 ppm in the assay with Venturia inaequalis was 80 to 100%.
For `COc1ccnc(C(=O)N[C@H]2CCC[C@H](CCBr)[C@@H](Oc3ccccc3)[C@H](C)OC2=O)c1OC(C)=O` [Compound F80], the pest or weed control at 100 ppm lay in the range of 80 to 100% in assay [1] (setting [7]); 80 to 100% in assay [1] (setting [8]); 80 to 100% in assay [2] (setting [9]); 80 to 100% in assay [2] (setting [10]); 0 to 80% in the assay with Venturia inaequalis. The pest or weed control at 121.5 g/ha in assay [1] (setting [3]), in assay [1] (setting [4]), in assay [2] (setting [5]) and in assay [2] (setting [6]) was 80 to 100% in each case.
Consider `COc1ccnc(C(=O)N[C@H]2CCC[C@H](Cc3ccc(F)cc3F)[C@@H](OC(=O)c3ccco3)[C@H](C)OC2=O)c1OCOC(=O)C(C)C` [Compound F157], for which the figures for the pest or weed control at 121.5 g/ha in assay [1] (setting [3]), in assay [2] (setting [5]) and in assay [2] (setting [6]) were 80 to 100%, 80 to 100% and 0 to 80%, respectively. For the same compound, the pest or weed control at 100 ppm in the assay on Venturia inaequalis fell in the range of 0 to 80%.
For `COc1ccnc(C(=O)N[C@H]2CCC[C@H](CC(F)F)[C@@H](Oc3ccccc3)[C@H](C)OC2=O)c1OCOC(C)=O` [Compound F138], the pest or weed control at 100 ppm in assay [1] (setting [7]) lay in the range of 80 to 100%; in assay [1] (setting [8]), 80 to 100%; in assay [2] (setting [9]) it was 80 to 100%; in assay [2] (setting [10]) it was 80 to 100%; with Venturia inaequalis, 0 to 80%. Also, the pest or weed control at 121.5 g/ha in assay [1] (setting [3]), in assay [1] (setting [4]), in assay [2] (setting [5]) and in assay [2] (setting [6]) was 80 to 100% each time.
For `COc1ccnc(C(=O)N[C@H]2CCC[C@H](Cc3ccccc3)[C@@H](Oc3ccccc3)[C@H](C)OC2=O)c1OCOC(C)=O` [Compound F108], the pest or weed control at 100 ppm in assay [1] (setting [7]) is 80 to 100%; in assay [1] (setting [8]), 80 to 100%; in assay [2] (setting [9]), 80 to 100%; in assay [2] (setting [10]), 80 to 100%; in the assay on Venturia inaequalis, 0 to 80%. In addition, the pest or weed control at 121.5 g/ha in assay [1] (setting [3]) is 80 to 100%; in assay [1] (setting [4]) it was 80 to 100%; in assay [2] (setting [5]), 80 to 100%; in assay [2] (setting [6]) it was 0 to 80%.
As to `COc1ccnc(C(=O)N[C@H]2CCC[C@H](CC(F)F)[C@@H](Oc3ccccc3)[C@H](C)OC2=O)c1OC(C)=O` [Compound F82], the pest or weed control at 100 ppm in assay [1] (setting [7]) was 80 to 100%; in assay [1] (setting [8]), 80 to 100%; in assay [2] (setting [9]), 80 to 100%; in assay [2] (setting [10]), 80 to 100%; in the assay on Venturia inaequalis, 0 to 80%. Besides, the pest or weed control at 121.5 g/ha in assay [1] (setting [3]), in assay [1] (setting [4]), in assay [2] (setting [5]) and in assay [2] (setting [6]) was 80 to 100% each time.
In the case of `CCOCC(=O)OCOc1c(OC)ccnc1C(=O)N[C@H]1CCC[C@H](Cc2ccc(F)cc2F)[C@@H](OC(=O)c2ccco2)[C@H](C)OC1=O` [Compound F193], the pest or weed control at 121.5 g/ha in assay [1] (24 h, Wheat Leaf Blotch, 1 Day Protectant, rate 121.5 g/H (low volume application), read-out: Disease control SEPTTR 1 DP) was 80 to 100%; in assay [1] (72 h, Wheat Leaf Blotch, 3 Day Curative, rate 121.5 g/H (low volume application), read-out: Disease control SEPTTR 3 DC), 0 to 80%; in assay [2] (24 h, Wheat Brown Rust, 1 Day Protectant, rate 121.5 g/H (low volume application), read-out: Disease control PUCCRT 1 DP), 80 to 100%. Further, the pest or weed control at 100 ppm in the assay with Venturia inaequalis was in the range of 80 to 100%.
In the case of `COc1ccnc(C(=O)N[C@H]2CCC[C@H](Cc3ccc(C)cc3)[C@@H](OCC(C)C)[C@H](C)OC2=O)c1OCOC(C)=O` [Compound F126], the pest or weed control at 100 ppm (in assay [1] (setting [7]); in assay [1] (setting [8]); in assay [2] (setting [9]); in assay [2] (setting [10]); with Erysiphe cichoracearum) was 80 to 100% throughout. Besides, the pest or weed control at 121.5 g/ha in assay [1] (setting [3]) fell in the range of 80 to 100%; in assay [1] (setting [4]), 80 to 100%; in assay [2] (setting [5]) it was 80 to 100%; in assay [2] (setting [6]), 0 to 80%.
With `COc1ccc(C[C@H]2CCC[C@H](NC(=O)c3nccc(OC)c3OCOC(C)=O)C(=O)O[C@@H](C)[C@@H]2OCC(C)C)cc1` [Compound F118], the pest or weed control at 100 ppm was 80 to 100% in assay [1] (setting [7]); 80 to 100% in assay [1] (setting [8]); 80 to 100% in assay [2] (setting [9]); 80 to 100% in assay [2] (setting [10]); 0 to 80% in the assay with Erysiphe cichoracearum. For the same compound, the pest or weed control at 121.5 g/ha in assay [1] (setting [3]), in assay [1] (setting [4]), in assay [2] (setting [5]) and in assay [2] (setting [6]) was 80 to 100% in each case.
For `CCOCC(=O)OCOc1c(OC)ccnc1C(=O)N[C@H]1CCC[C@H](Cc2ccccc2)[C@@H](OCC2CC2)[C@H](C)OC1=O` [Compound F173], the pest or weed control at 100 ppm (in assay [1] (setting [7]); in assay [1] (setting [8]); in assay [2] (setting [9]); in assay [2] (setting [10]); with Erysiphe cichoracearum) was 80 to 100% throughout. Further, the pest or weed control at 121.5 g/ha in assay [1] (setting [3]), in assay [1] (setting [4]), in assay [2] (setting [5]) and in assay [2] (setting [6]) was 80 to 100% each time.
With `C=C[C@H]1CCC[C@H](NC(=O)c2nccc(OC)c2OC(C)=O)C(=O)O[C@@H](C)[C@@H]1Oc1ccccc1` [Compound F86], the pest or weed control at 121.5 g/ha in assay [1] (setting [3]), in assay [1] (setting [4]), in assay [2] (setting [5]) and in assay [2] (setting [6]) was 80 to 100% each time. The pest or weed control at 100 ppm in the assay on Venturia inaequalis was 0 to 80%.
With `COc1ccnc(C(=O)N[C@H]2CCC[C@H](Cc3ccccc3)[C@@H](OC3CCCC3)[C@H](C)OC2=O)c1OCOC(C)=O` [Compound F110], the pest or weed control at 100 ppm in assay [1] (setting [7]) was in the range of 80 to 100%; in assay [1] (setting [8]), 80 to 100%; in assay [2] (setting [9]), 80 to 100%; in assay [2] (setting [10]) it was 80 to 100%; in the assay on Venturia inaequalis, 0 to 80%. Moreover, the pest or weed control at 121.5 g/ha in assay [1] (setting [3]), in assay [1] (setting [4]), in assay [2] (setting [5]) and in assay [2] (setting [6]) was 80 to 100% each time.
